Test results: article PMC9354082, “5-HT3 Receptor MX Helix Contributes to Receptor Function” (ACS Chemical Neuroscience, 2022)
Positions count from the first letter of the chain named.

Key:
Test in all cases: Radioligand binding, transfected HEK293 cell membranes
Details in all cases: HEK cell membranes, n=4
[1] = biological target: T1, P318A mutant 5-HT3 receptor (Mus musculus, UniProt P23979, P345A)
T1 construct: expressed in transfected cells; host or cells: HEK293 cells (membranes)
T1 sequence (P23979 24-489 P345A): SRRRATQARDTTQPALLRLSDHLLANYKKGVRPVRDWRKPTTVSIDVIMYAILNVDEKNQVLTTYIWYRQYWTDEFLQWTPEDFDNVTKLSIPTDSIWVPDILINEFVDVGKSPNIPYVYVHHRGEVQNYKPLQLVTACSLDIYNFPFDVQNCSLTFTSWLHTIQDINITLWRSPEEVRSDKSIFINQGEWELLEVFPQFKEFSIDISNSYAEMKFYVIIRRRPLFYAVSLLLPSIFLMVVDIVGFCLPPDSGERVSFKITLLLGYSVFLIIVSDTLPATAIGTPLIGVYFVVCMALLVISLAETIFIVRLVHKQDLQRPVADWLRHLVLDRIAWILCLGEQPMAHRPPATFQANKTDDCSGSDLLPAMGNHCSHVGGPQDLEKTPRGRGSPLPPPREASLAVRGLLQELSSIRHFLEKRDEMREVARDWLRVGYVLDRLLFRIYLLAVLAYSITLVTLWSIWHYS
Description: (§1) One method to explore this is to perform radiolabeled ligand binding to examine the parameters associated with the binding site.
(§2) This was undertaken as previously described.[23] Briefly, transfected HEK293 cell membranes were incubated in 0.5 ml of HEPES buffer containing the 5-HT3 receptor antagonist [^3H]GR65630 to label cell surface receptors. Nonspecific binding was determined using 1 μM quipazine. Data were analyzed by iterative curve fitting using Prism. Values are presented as mean ± SEM.

[2] = biological target: T2, H323A mutant 5-HT3 receptor (Mus musculus, UniProt P23979, H350A)
T2 construct: expressed in transfected cells; host or cells: HEK293 cells (membranes)
T2 sequence (P23979 24-489 H350A): T1 sequence (P23979 24-489 P345A) with A322P, H327A
Description: as §1, §2

[3] = biological target: T3, WT 5-HT3 receptor (Mus musculus, UniProt P23979)
T3 construct: expressed in transfected cells; host or cells: HEK293 cells (membranes)
T3 sequence (P23979 24-489): T1 sequence (P23979 24-489 P345A) with A322P
Description: as §1, §2

Cc1[nH]cnc1CCC(=O)c1cn(C)c2ccccc12 [[^3H]GR65630]
Bmax [1]: 0.9 ± 0.2 pmol/mg protein
Bmax [2]: 1.0 ± 0.1 pmol/mg protein
Bmax [3]: 1.1 ± 0.4 pmol/mg protein
Kd [3]: 0.25 ± 0.1 nM
